Results taken from ChEMBL document CHEMBL1201862, “PubChem BioAssay data set” (2004).
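The compound was tested at five concentrations on cells cultured in 96-well plates, with a 48-hour exposure period. Abbreviation: GI50, concentration required for 50% inhibition of growth.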 Calls of active or inactive are those of the source. No stated cut-off is given here; in the data, active = GI50 up to about 1.1 µM and inactive = higher. *1 amine or outer side, *2 acyl side, *3 side chain or, on linkers, in order; H or OH if unused. Where a SMILES comes first, the peptide text is derived from it. Bridges are numbered along the chain shown (N, C = ends). Roman numbers before positions name the chains, in order. [ ]: non-standard residue; d: D form. Actinocin(9to1) = Cc1c2oc3c(C)ccc(C(=O)[*:1])c3nc-2c(C(=O)[*:2])c(N)c1=O; NMeV = CN[CH](C(=O)O)C(C)C; Sar = CNCC(=O)O

Columns and labels:
Assay in all cases: inhibition of tumour cell growth, NCI panel, 48 h
NCI-H226 = tested on: NCI-H226
SF-539 = tested on: SF-539
LXFL 529 = tested on: LXFL 529
Malme-3M = tested on: Malme-3M
786-0 = tested on: 786-0
HCC 2998 = tested on: HCC 2998
RPMI-8226 = tested on: RPMI-8226
LOX IMVI = tested on: LOX IMVI
HOP-92 = tested on: HOP-92
A498 = tested on: A498
SR = tested on: SR
MDA-N = tested on: MDA-N
NCI/ADR-RES = tested on: NCI/ADR-RES
T47D = tested on: T47D
MCF7 = tested on: MCF7
MDA-MB-435 = tested on: MDA-MB-435
BT-549 = tested on: BT-549
PC-3 = tested on: PC-3
DU-145 = tested on: DU-145
MDA-MB-231 = tested on: MDA-MB-231

Row | Compound | GI50 (NCI-H226) | GI50 (SF-539) | GI50 (LXFL 529) | GI50 (Malme-3M) | GI50 (786-0) | GI50 (HCC 2998) | GI50 (RPMI-8226) | GI50 (LOX IMVI) | GI50 (HOP-92) | GI50 (A498) | GI50 (SR) | GI50 (MDA-N) | GI50 (NCI/ADR-RES) | GI50 (T47D) | GI50 (MCF7) | GI50 (MDA-MB-435) | GI50 (BT-549) | GI50 (PC-3) | GI50 (DU-145) | GI50 (MDA-MB-231)
1 | COc1ccc2c(c1)[n+]([O-])c(C(C)=O)c(C)[n+]2[O-] | > 100 µM (inactive) | > 100 µM (inactive) | > 100 µM (inactive) | > 100 µM (inactive) | > 100 µM (inactive) | > 100 µM (inactive) | > 100 µM (inactive) | > 100 µM (inactive) | > 100 µM (inactive) | – | – | – | – | – | – | – | – | – | – | –
2 | CC1(CO)OC(n2cnc3c(N)ncnc32)C(O)C1O (stereo not drawn) | – | > 100 µM (inactive) | > 100 µM (inactive) | > 100 µM (inactive) | > 100 µM (inactive) | > 100 µM (inactive) | > 100 µM (inactive) | > 100 µM (inactive) | > 100 µM (inactive) | > 100 µM (inactive) | > 100 µM (inactive) | – | – | – | – | – | – | – | – | –
3 | O=C(CCCN1CCC(C(O)c2ccc(F)cc2)CC1)c1ccc(F)cc1 (stereo not drawn) | 53.3 µM (inactive) | 59.4 µM (inactive) | – | 55.3 µM (inactive) | 44.9 µM (inactive) | 41.1 µM (inactive) | 66.5 µM (inactive) | 50 µM (inactive) | 20.6 µM (inactive) | 49 µM (inactive) | 69.8 µM (inactive) | 61 µM (inactive) | 66.5 µM (inactive) | 56.1 µM (inactive) | 64.9 µM (inactive) | 57 µM (inactive) | 45.4 µM (inactive) | 47.1 µM (inactive) | 61.9 µM (inactive) | 39.8 µM (inactive)
4 | COc1ccc2c(c1)OC[C@@H]1c3cc(O)c(OCc4ccccc4)cc3O[C@H]21 | 27.3 µM (inactive) | 90.4 µM (inactive) | 18.7 µM (inactive) | 28.1 µM (inactive) | 37.3 µM (inactive) | 36.2 µM (inactive) | 10.2 µM (inactive) | 30 µM (inactive) | 14.8 µM (inactive) | 6.62 µM (inactive) | – | – | – | – | – | – | – | – | – | –
5 | COc1ccc2nc3cc(Cl)ccc3c(NCCCCCC(=O)NC(COc3ccc4ccc5cccnc5c4n3)COc3ccc4ccc5cccnc5c4n3)c2c1 | 20.8 µM (inactive) | 16.9 µM (inactive) | – | 45.9 µM (inactive) | 15.4 µM (inactive) | 14.9 µM (inactive) | 5.58 µM (inactive) | 21.4 µM (inactive) | 24.4 µM (inactive) | 17.3 µM (inactive) | 3.14 µM (inactive) | 23 µM (inactive) | 26.9 µM (inactive) | 20.1 µM (inactive) | 2.23 µM (inactive) | 38.6 µM (inactive) | 1.67 µM (inactive) | 15.2 µM (inactive) | 11.5 µM (inactive) | 19.4 µM (inactive)
6 | Clc1cc(Cl)cc(C2SCc3nc4ccccc4n32)c1 (stereo not drawn) | 19.9 µM (inactive) | 11.1 µM (inactive) | 14.4 µM (inactive) | 15.8 µM (inactive) | 15.6 µM (inactive) | > 10 µM (inactive) | 11.5 µM (inactive) | – | 14.4 µM (inactive) | – | 17.2 µM (inactive) | – | – | – | – | – | – | – | – | –
7 | O=c1[nH]cnc2c(COCCCO)c[nH]c12 | – | – | > 100 µM (inactive) | > 100 µM (inactive) | > 100 µM (inactive) | – | > 100 µM (inactive) | > 100 µM (inactive) | > 100 µM (inactive) | – | > 100 µM (inactive) | – | – | – | – | – | – | – | – | –
8 | COC1OC2COC1(OC)C1OC(C)(C)OC21 (stereo not drawn) | > 100 µM (inactive) | – | – | > 100 µM (inactive) | > 100 µM (inactive) | > 100 µM (inactive) | > 100 µM (inactive) | – | – | > 100 µM (inactive) | > 100 µM (inactive) | > 100 µM (inactive) | > 100 µM (inactive) | > 100 µM (inactive) | > 100 µM (inactive) | > 100 µM (inactive) | > 100 µM (inactive) | > 100 µM (inactive) | > 100 µM (inactive) | > 100 µM (inactive)
9 | Cn1nc(-c2ccccc2)c(C(=O)/C=C/c2ccccc2)c(N2CCCC2)c1=O | – | 13.2 µM (inactive) | 11.9 µM (inactive) | – | 13.2 µM (inactive) | – | 6.35 µM (inactive) | 15.1 µM (inactive) | 1.64 µM (inactive) | 11.4 µM (inactive) | – | – | – | – | – | – | – | – | – | –
10 | FC(F)(F)c1ccc2c(c1)nc1n2C(c2c(Cl)cccc2Cl)SC1 (stereo not drawn) | 21.1 µM (inactive) | 19.7 µM (inactive) | – | 18.2 µM (inactive) | 16.6 µM (inactive) | 21.8 µM (inactive) | – | 25.9 µM (inactive) | 13.6 µM (inactive) | 17.9 µM (inactive) | 20.7 µM (inactive) | 16.6 µM (inactive) | 21.5 µM (inactive) | 15.8 µM (inactive) | 15.7 µM (inactive) | 16.8 µM (inactive) | 23 µM (inactive) | 15 µM (inactive) | 21.4 µM (inactive) | 17 µM (inactive)
11 | Cc1ccc(S(=O)(=O)OCCOCCOCCOCCOCCOS(=O)(=O)c2ccc(C)cc2)cc1 | 33.5 µM (inactive) | – | 33.7 µM (inactive) | 73.6 µM (inactive) | 62.8 µM (inactive) | 41.6 µM (inactive) | 33.5 µM (inactive) | 45.2 µM (inactive) | 35.7 µM (inactive) | 44.4 µM (inactive) | 54.3 µM (inactive) | – | – | – | – | – | – | – | – | –
12 | CCN(CC)CCn1nc2c3c(c(NCCN)ccc31)Sc1cc(O)ccc1-2 | – | 0.406 µM (active) | 0.178 µM (active) | 1.07 µM (active) | 0.741 µM (active) | – | 0.377 µM (active) | 0.146 µM (active) | 0.94 µM (active) | 1.36 µM (inactive) | 0.201 µM (active) | – | – | – | – | – | – | – | – | –
13 | COC(=O)C1CCC(=O)C(Sc2ccccc2)C1 (stereo not drawn) | > 100 µM (inactive) | > 100 µM (inactive) | > 100 µM (inactive) | – | – | – | 44.3 µM (inactive) | > 100 µM (inactive) | 50.1 µM (inactive) | > 100 µM (inactive) | – | – | – | – | – | – | – | – | – | –
14 | CN(c1ccc(C(=O)c2ccc(N(C)S(C)(=O)=O)cc2)cc1)S(C)(=O)=O | > 100 µM (inactive) | – | 42.4 µM (inactive) | > 100 µM (inactive) | > 100 µM (inactive) | – | > 100 µM (inactive) | – | > 100 µM (inactive) | > 100 µM (inactive) | 59.8 µM (inactive) | – | – | – | – | – | – | – | – | –
15 | CSC1(C)C(=O)Nc2c(OCc3ccccc3)cc([N+](=O)[O-])cc21 (stereo not drawn) | 13.5 µM (inactive) | 66.1 µM (inactive) | – | 63.4 µM (inactive) | 12.9 µM (inactive) | > 100 µM (inactive) | 32.2 µM (inactive) | 53 µM (inactive) | 20 µM (inactive) | 34.2 µM (inactive) | > 100 µM (inactive) | 30.1 µM (inactive) | 28.4 µM (inactive) | 19.3 µM (inactive) | 14 µM (inactive) | 78.3 µM (inactive) | 51.1 µM (inactive) | 27 µM (inactive) | > 100 µM (inactive) | 26.7 µM (inactive)
16 | Nn1c(S)nnc1COc1cccc(OCc2nnc(S)n2N)c1 | > 100 µM (inactive) | 80 µM (inactive) | – | > 100 µM (inactive) | 34.3 µM (inactive) | > 100 µM (inactive) | 53.6 µM (inactive) | 32.4 µM (inactive) | > 100 µM (inactive) | > 100 µM (inactive) | 2.45 µM (inactive) | > 100 µM (inactive) | > 100 µM (inactive) | > 100 µM (inactive) | 75 µM (inactive) | > 100 µM (inactive) | > 100 µM (inactive) | > 100 µM (inactive) | > 100 µM (inactive) | > 100 µM (inactive)
17 | c1ccc(C2N3CCCCC3[C@@H]3c4[nH]c5ccccc5c4CCN23)cc1 (stereo partly drawn) | – | > 100 µM (inactive) | 85.3 µM (inactive) | 27 µM (inactive) | > 100 µM (inactive) | 98.9 µM (inactive) | 36.2 µM (inactive) | – | > 100 µM (inactive) | 27 µM (inactive) | – | – | – | – | – | – | – | – | – | –
18 | CCCCCCCCCCCCNC(=S)OC | – | 17 µM (inactive) | 14.8 µM (inactive) | 15.5 µM (inactive) | 15.8 µM (inactive) | 18.2 µM (inactive) | 7.98 µM (inactive) | 15.2 µM (inactive) | 7.08 µM (inactive) | 16.9 µM (inactive) | 3.01 µM (inactive) | – | – | – | – | – | – | – | – | –
19 | CC1OC1C(=O)P(=O)(O)O (stereo not drawn) | > 100 µM (inactive) | > 100 µM (inactive) | – | – | – | > 100 µM (inactive) | > 100 µM (inactive) | > 100 µM (inactive) | > 100 µM (inactive) | > 100 µM (inactive) | > 100 µM (inactive) | > 100 µM (inactive) | > 100 µM (inactive) | > 100 µM (inactive) | > 100 µM (inactive) | > 100 µM (inactive) | > 100 µM (inactive) | > 100 µM (inactive) | > 100 µM (inactive) | > 100 µM (inactive)
20 | COc1ccc(C(=O)c2c3cc(OC)c(OC)c(OC)c3cc[n+]2C)cc1 | 19.7 µM (inactive) | > 10 µM (inactive) | 24.9 µM (inactive) | 35 µM (inactive) | 18.6 µM (inactive) | 50.2 µM (inactive) | 10.2 µM (inactive) | – | – | 36.7 µM (inactive) | 14.8 µM (inactive) | – | – | – | – | – | – | – | – | –
21 | Cc1c2oc3c(C)ccc(C(=O)NC4C(=O)NC(C(C)O)C(=O)N5CCCC5C(=O)N(C)CC(=O)N(C)C(C(C)C)C(=O)OC4C)c3nc-2c(C(=O)NC2C(=O)NC(C(C)O)C(=O)N3CCCC3C(=O)N(C)CC(=O)N(C)C(C(C)C)C(=O)OC2C)c(N)c1=O (stereo not drawn) (I: TTP[Sar][NMeV] / II: TTP[Sar][NMeV]; ester I:1-I:C, II:1-II:C; linker I:N-II:N via Actinocin(9to1); configuration not given here) | 0.0344 µM (active) | 0.0764 µM (active) | – | 0.125 µM (active) | 0.136 µM (active) | 1.54 µM (inactive) | 0.0365 µM (active) | 0.0493 µM (active) | – | 0.774 µM (active) | < 0.01 µM (active) | 1.08 µM (active) | > 100 µM (inactive) | 0.184 µM (active) | 0.0507 µM (active) | 0.413 µM (active) | 0.0155 µM (active) | 1.06 µM (active) | 1.32 µM (inactive) | 3.76 µM (inactive)
